We go through nine compounds from patent publication EP0412158A1, “ONCOSTATIC DRUG” (priority 1987, dated 1988).

Several values for one entry are separate records, joined by “and”; a condition that tells them apart may be missing. Identical values can stand only once. Marks after values point to notes of the source that are not given here.

Data set [1] deals with human breast cancer (MX-1). The data set can be described thus: Human breast cancer MX-1, SRC method (Examples 29 and 30). The class given is in vivo, female ICR/cd-1 mice. To be noted: for antineoplastic activity: result in words.
The test system of data set [2] is methyl cholanthrene A tumor. Description: Antineoplastic activity against transplanted methyl cholanthrene A tumor, evaluation by size of tumor (Examples 1 to 6). The class given is in vivo, female BALB/C mice. To be noted: No. 3, ip×9; for Change in body weight: body weight 13 days after transplantation; for T/control: tumor weight. As to the method: By dissolving alkylammonium salt of polymolybdic acid [NH3C3H7(iso)]s [Mo7O24] • 3H2O (Compound A) and other compounds (Compounds B to D) severally in distilled water, aqueous solutions containing the compounds in a fixed concentration of 10 mg/ml were obtained. These aqueous solutions were administered to female BALB/C mice (five weeks old) to which methyl cholanthrene A tumor had been transplanted to test the compounds for antineoplastic activity. To be specific, methyl cholanthrene A was transplanted to the mice in a ratio of 1.0 x 10^5 cells per mouse and the aqueous solutions were continuously administered to the mice by intraperitoneal injection ([…]) for nine days. On elapse of 14 days following the start of the administration, the tumors in the mice were measured. For comparison, mice to which no antineoplastic .drug was administered and mice to which aminonitroso urea was administered were tested by following the procedure described above.

The next data set has as its system methyl cholanthrene A. Description: Methyl cholanthrene A tumor, evaluation by extension of period of survival (Examples 7 to 11). The class given is in vivo, female BALB/C mice. To be noted: No. 2; for Average number of days of survival / Number of toxically killed mice/total number of mice / T/control: ip×9; for Change in body weight: ip×9, D1~D9; for T/control: days of survival. How it is done: The aforementioned compounds, A to D, were severally dissolved in distilled water to obtain aqueous solutions containing the compounds in a fixed concentration of 10 mg/ml. To the female BALB/C mice (five weeks old) to which methyl cholanthrene A had been transplanted in a ratio of 1.0 x 10^5 cells per mouse, […] to determine the mices' periods of survival. For comparison, mice to which no antineoplastic drug was administered and mice to which aminonitroso urea was administered were similarly tested.

The test system of data set [3] is MM-46 breast cancer. It is filed as in vivo, female C3H/He mice. To be noted: 100 mg/kg, ip × 9. How it is done:
The active compounds, I to L, mentioned above were severally dissolved in distilled water to obtain aqueous solutions containing the compounds in a fixed concentration of 10 mg/ml. To female C3H/He mice (five weeks old) to which the MM-46 breast cancer had been transplanted in a ratio of 1.0 x 10^5 cells per mouse, the aqueous solutions were continuously administered at a dose of 100 mg/kg of body weight by intraperitoneal injection for nine days to determine the mice's periods of survival. For comparison, mice to which no aqueous solution was administered and mice to which aminonitrosourea was administered were similarly tested.

In data set [4] the test system is MM-46 breast cancer. Description: MM-46 breast cancer, evaluation by size of tumor (Examples 21 to 24). It is filed as in vivo, female C3H/He mice. To be noted: for Average weight of tumor / Number of tumorless mice /total number of mice / T/control: 100 mg/kg; for Average weight of tumor / Number of tumorless mice /total number of mice: ip × 9; for T/control: ip×9, tumor weight. As to the method:
A polymolybdate, K6[Mo7022(02)2]8H20 (Compound I), and the aforementioned other compounds (Compounds J to L) were severally dissolved in distilled water to obtain aqueous solutions containing the compounds in a fixed concentration of 10 mg/mi. To female C3H/He mice (five weeks old) to which MM-46 breast cancer had been transplanted, the aqueous solutions were administered to test the compounds for antineoplastic activity. To be more specific, the MM-46 breast cancer was transplanted to the mice at a ratio of 5.0 x 10^5 cells per mouse and the aqueous solutions were continuously administered (at a dose of 100 mg/kg of body weight) by intraperineal injection for nine days. On elapse of 14 days after the stop of the administration, the size of tumor in the mice was measured. For comparison, mice to which the aqueous solution was not administered and mice to which aminonitroso urea was administered were similarly tested.

The mark [5] stands for this setting: 30 mg/kg ip(×5), individual mice.
Where [6] appears, read: 129 mg/kg po(×5), individual mice.
Setting [7] is: 257 mg/kg po(×5), individual mice.
Where [8] appears, read: 100 mg/kg ip(×5), individual mice.
Where [9] appears, read: 100 mg/kg ip(×5), individual mice, listed as Compound II.
Setting [10] is: 200 mg/kg ip(×5), individual mice, listed as Compound II.

Consider `O=c1[nH]cc(F)c(=O)[nH]1` [Compound 5-FU, 5-fluorouracil], for which the T/C in data set [1] (30 mg/kg ip(×5)) is recorded as 56.48* %. The same compound showed a T7/To in data set [1] (30 mg/kg ip(×5), group mean) of 0.779±0.072. Further, in data set [1] (setting [5]), the T7/To is 0.839 and 0.576 and 0.917 and 0.786; the “Tumor 7 days after transplantation (T7)” value is 13.0 omu and 7.5 omu and 16.5 omu and 11.0 omu.
Take `O.O.[NH4+].[NH4+].[NH4+].[NH4+].[NH4+].[NH4+].[O]=[Mo](=[O])([O-])[O][Mo](=[O])(=[O])[O][Mo](=[O])([O-])([O-])[O][Mo](=[O])(=[O])[O][Mo](=[O])([O-])([O-])[O][Mo](=[O])(=[O])[O][Mo](=[O])(=[O])[O-]` [Compound D, [NH4]6 [Mo7O24]. 2H20]: in data set [2] (100 mg/kg), the “Average weight of tumor” value is recorded as 1790.5±189.3(8) mg, the “Number of tumorless mice /total number of mice” value is 0/8, the “Change in body weight” value is reported as “+1.20 g” and the T/control is reported as 0.695. In the data set on methyl cholanthrene A (100 mg/kg), the “Average number of days of survival” value was 33.3±2.7(8) days, the “Number of toxically killed mice/total number of mice” value was 0/8, the “Change in body weight” value is reported as “+1.20 g” and the T/control is on record as 133.3.
Consider `CCCCCCNC(=O)n1cc(F)c(=O)[nH]c1=O` [HCFU(Mifur ol)], for which the T/C was 61.15* % in data set [1] (129 mg/kg po(×5)) and 66.82* % in data set [1] (257 mg/kg po(×5)). Besides, the T7/To in data set [1] (129 mg/kg po(×5), group mean) is 0.844±0.040; in data set [1] (setting [6]), 0.929 and 0.885 and 0.741 and 0.821; in data set [1] (257 mg/kg po(×5), group mean) it was 0.922±0.042; in data set [1] (setting [7]) it was 0.896 and 1.037 and 0.833 and 0.923. In addition, the W7/Wo was 1.104±0.037 in data set [1] (129 mg/kg po(×5), group mean); 1.087 and 1.207 and 1.028 and 1.097 in data set [1] (setting [6]); 1.080±0.035 in data set [1] (257 mg/kg po(×5), group mean); 1.109 and 1.166 and 1.011 and 1.037 in data set [1] (setting [7]). Further, the “Body weight 7 days after transplantation (W7)” value is 21.3 g and 22.7 g and 21.8 g and 23.7 g in data set [1] (setting [6]); 21.7 g and 23.2 g and 18.2 g and 19.4 g in data set [1] (setting [7]). Further, the “Tumor 7 days after transplantation (T7)” value was 13.0 omu and 11.5 omu (2×) and 10.5 omu in data set [1] (setting [6]); 13.0 omu and 14.0 omu and 12.5 omu and 12.0 omu in data set [1] (setting [7]).
Turning to K6 [Mo7O22(O2)2] • 8H2O [Compound I], in the data set with MM-46 breast cancer [3], the “Average number of days of survival” value was 33.1±2.9(8) days, the “Average weight of tumor after 14 days” value was 1135 ±185(8) mg, the “Ratio of elongation of life (5)” value came to 100.8 and the “ratio of elongation of life” value amounted to 100.8%. Besides, in data set [1] (100 mg/kg ip(×5)), the T/C is reported as 57.28 8* %. Besides, in data set [1] (100 mg/kg ip(×5), group mean), the T7/To came out at 0.790±0.077 and the W7/Wo is reported as 1.068±0.008. Besides, in data set [1] (setting [8]), the “Body weight 7 days after transplantation (W7)” value is 21.0 g and 20.5 g and 21.4 g and 20.6 g; the T7/To is 0.875 and 0.941 and 0.760 and 0.586; the “Tumor 7 days after transplantation (T7)” value was 10.5 omu and 8.0 omu and 9.5 omu and 8.5 omu; the W7/Wo is 1.061 and 1.057 and 1.092 and 1.062. The antineoplastic activity result in data set [1] was “strong antineoplastic activity”. In the data set on MM-46 breast cancer [4], the “Average weight of tumor” value is on record as 1134.9±184.5(1 0) mg, the “Number of tumorless mice /total number of mice” value is given as 0/10 and the T/control was found to be 0.397. Also, in the data set with MM-46 breast cancer [4] (100 mg/kg.ip for nine days, judged by increase of body weight, result in words), the toxicity result was “very low toxicity”.
Consider K6 [Mo7O23(O2)] • 8H2O [Compound K], for which, in the data set on MM-46 breast cancer [3], the “Average number of days of survival” value was 32.1±2.7(8) days, the “Average weight of tumor after 14 days” value is reported as 1140± 221(8) mg and the “Ratio of elongation of life (5)” value is recorded as 94.5. Also, in the data set on MM-46 breast cancer [4], the “Average weight of tumor” value is on record as 1139.5±221.1(8 ) mg, the “Number of tumorless mice /total number of mice” value is 0/8 and the T/control is reported as 0.399.
Regarding “[NH3 (iso)]6 [Mo7O22(O2)2] • 5H20 [Compound J]”, in the data set with MM-46 breast cancer [3], the “Average number of days of survival” value is 40.6±4.1(6) days, the “Average weight of tumor after 14 days” value was 385±152 (8) mg and the “Ratio of elongation of life (5)” value worked out at 146.2. The T/C in data set [1] (100 mg/kg ip(×5)) is 63.53* %. In data set [1] (100 mg/kg ip(×5), group mean), the T7/To amounted to 0.876±0.037. In data set [1] (setting [9]), the T7/To is 0.913 and 0.792 and 0.840 and 0.962; the “Tumor 7 days after transplantation (T7)” value is 10.5 omu (2×) and 9.5 omu and 12.5 omu. Besides, in data set [1] (200 mg/kg ip(×5)), the T/C was 73.02* %. In data set [1] (200 mg/kg ip(×5), group mean), this compound displayed a T7/To of 1.007±0.087. Further, in data set [1] (setting [10]), the T7/To was 1.077 and 1.222 and 0.852 and 0.880; the “Tumor 7 days after transplantation (T7)” value is 14.0 omu and 11.0 omu (2×) and 11.5 omu. Besides, the antineoplastic activity entry in data set [1] is reported as “same degree of antineoplastic activity as that of HCFU”. In addition, in the data set on MM-46 breast cancer [4], the “Average weight of tumor” value is given as 385.1±152.3(10 ) mg, the “Number of tumorless mice /total number of mice” value was 5/10 and the T/control stood at 0.135.
Consider “[NH3 (iso)]6 [Mo7O23(O2)] • 5H20 [Compound L]”, for which, in the data set with MM-46 breast cancer [3], the “Average number of days of survival” value is listed as 32.1±3.9(8) days, the “Average weight of tumor after 14 days” value was 1086 ± 132(8) mg and the “Ratio of elongation of life (5)” value turned out to be 94.5. In addition, in the data set with MM-46 breast cancer [4], the “Average weight of tumor” value is 1085.6±133.2** ** mg, the “Number of tumorless mice /total number of mice” value is 0/8 and the T/control is 00.380.
On to “[NH3C3H7(iso)]4 (Mo13O40] 1/3 • [Mo12O40H2]2/3 [Compound B]”, for which, in data set [2] (25 mg/kg), the “Average weight of tumor” value is recorded as 1753.1±132.4(9) mg, the “Number of tumorless mice /total number of mice” value is recorded as 0/9, the “Change in body weight” value is reported as -0.36 g and the T/control is 0.681. Besides, in the data set with methyl cholanthrene A (25 mg/kg), the “Average number of days of survival” value is on record as 29.3±1.9(9) days, the “Number of toxically killed mice/total number of mice” value was 0/9, the “Change in body weight” value is listed as -0.36 g and the T/control is reported as 130.4.
Consider “[NH3C3H7(iso)]6 [Mo7O24H] mixture [Compound C]”, for which, in data set [2] (25 mg/kg), the “Average weight of tumor” value is listed as 1425.2±130.6(10) mg, the “Number of tumorless mice /total number of mice” value is listed as 0/10, the “Change in body weight” value is given as -2.19 g and the T/control stood at 0.553. In addition, in the data set with methyl cholanthrene A (25 mg/kg), the “Average number of days of survival” value is on record as 30.2±2.0(10) days, the “Number of toxically killed mice/total number of mice” value is listed as 0/10, the “Change in body weight” value is -2.19 g and the T/control was found to be 134.2.
